Data: patent publication US20040121004A1, “Dosage forms containing a PPI, NSAID, and buffer” (priority 2002, published 2004)

Tests used:
[1] = Substance compatibility in granulations: potency by HPLC, initially and after storage; assay type: physicochemical; details: for Potency NSAID, 2 Weeks Extreme Conditions: 2 weeks at 40° C. with 75% to 85% relative humidity; for Potency NSAID, 4 Weeks Extreme Conditions: 4 weeks at 40° C. with 75% to 85% relative humidity; for Potency NSAID, 19 Days RT: 19 days at room temperature; for Potency NSAID, 33 Days RT: 33 days at room temperature
Experimental: In this example, granulations of a PPI and various NSAIDs were prepared to determine the compatibility of these substances with each other in a granulated form.
The potency (mg/g) of each drug substance in each granulation was determined by HPLC.
Granulations A, C, and D, as well as naproxen and piroxicam drug substances were weighed and separately placed in scintillation vials and stored at room temperature (RT) and at 40° C. with 75% to 85% relative humidity (“Extreme Conditions”). Granulations A, C, and D, as well as the naproxen and piroxicam, were tested for potency of the lansoprazole and NSAID after 19 and 33 days at the room temperature conditions and after two and four weeks under the Extreme Conditions.

[2] = PPI/NSAID drug substance compatibility (storage stability of mixtures); assay type: physicochemical
Experimental: Various NSAIDs were combined with lansoprazole with and without a buffer to determine the compatibility of the components. The various mixtures were placed at room temperature and 40° C. with 75% relative humidity. The samples were tested initially and after two weeks at the storage conditions above. The results are reported in Table 1 below as a percent of the theoretical amount of a given component.

## CN1C(C(=O)Nc2ccccn2)=C(O)c2ccccc2S1(=O)=O [Piroxicam, piroxicam]
[1]
  Potency NSAID, 2 Weeks Extreme Conditions: NA/942.2 mg/g
  Potency NSAID, 4 Weeks Extreme Conditions: NA/1005.5 mg/g
  Potency NSAID, 19 Days RT: NA/1027.1 mg/g
  Potency NSAID, 33 Days RT: NA/998.5 mg/g

## COc1ccc2cc([C@H](C)C(=O)O)ccc2c1 [Naproxen, naproxen]
[1]
  Potency NSAID, 2 Weeks Extreme Conditions: NA/996.7 mg/g
  Potency NSAID, 4 Weeks Extreme Conditions: NA/1000.9 mg/g
  Potency NSAID, 19 Days RT: NA/997.2 mg/g
  Potency NSAID, 33 Days RT: NA/998.2 mg/g

## Cc1c(OCC(F)(F)F)ccnc1C[S+]([O-])c1nc2ccccc2[nH]1 (centres unmarked) [Lansoprazole, lansoprazole]
[2]; initial, percent of theoretical amount of lansoprazole
  % of Theory, lansoprazole, Initial: 100.8/NA %
[2]; two weeks at 40° C. with 75% relative humidity
  % of Theory, lansoprazole, 40° C. 75% humidity: 99.1/NA %
[2]; two weeks at room temperature
  % of Theory, lansoprazole, Room Temp.: 99.1/NA %
